# Read-outs that look alike come from different tables or passages of the source.
# Experiments:
# [1] = system: Staphylococcus aureus CCM 4516/08; experiment: Antibacterial microdilution broth, SA; format: cell-based; details: Staphylococcus aureus
# [2] = system: Trichosporon asahii 1188; experiment: Antifungal microdilution broth, TA; format: cell-based; details: read-out: MIC TA
# [3] = system: M. kansasii CNCTC My 235/80 (ATCC 12478); experiment: Antimycobacterial microdilution MABA, M. kansasii; format: cell-based, Mycobacterium kansasii; details: for MIC: Mycobacterium kansasii, ATCC12478, pH 6.6, read-out: M. kans. ATCC 12478 MIC, Middlebrook 7H9 with OADC, pH 6.6, MABA
# [4] = system: Candida albicans ATCC 44859; experiment: Antifungal microdilution broth, CA; format: cell-based; details: Candida albicans, read-out: MIC CA
# [5] = system: Escherichia coli CCM 4517; experiment: Antibacterial microdilution broth, EC; format: cell-based; details: Escherichia coli, read-out: MIC EC
# [6] = system: Pseudomonas aeruginosa CCM 1961; experiment: Antibacterial microdilution broth, PA; format: cell-based; details: Pseudomonas aeruginosa, read-out: MIC PA
# [7] = system: Lichtheimia corymbifera 272; experiment: Antifungal microdilution broth, LC; format: cell-based; details: read-out: MIC LC
# [8] = system: M. avium ssp. avium CNCTC My 80/72 (ATCC 15769); experiment: Antimycobacterial microdilution MABA, M. avium; format: cell-based, Mycobacterium avium; details: for M. avium ATCC 15769 MIC: Middlebrook 7H9 with OADC, pH 6.6, MABA; for MIC: Mycobacterium avium, ATCC15769, pH 6.6, read-out: M. avium ATCC 15769 MIC
# [9] = system: Candida glabrata 20/I; experiment: Antifungal microdilution broth, CG; format: cell-based; details: Nakaseomyces glabratus, 20/I, read-out: MIC CG
# [10] = system: Staphylococcus aureus H 5996/08 methicillin resistant; experiment: microbe, parasite or virus in culture; format: cell-based; details: Staphylococcus aureus, MRSA, read-out: MIC MRSA
# [11] = system: Enterococcus sp. J 14365/08; experiment: Antibacterial microdilution broth, EF; format: cell-based; details: Enterococcus, read-out: MIC EF
# [12] = system: Candida krusei E28; experiment: Antifungal microdilution broth, CK; format: cell-based; details: Pichia kudriavzevii, read-out: MIC CK
# [13] = system: Candida tropicalis 156; experiment: Antifungal microdilution broth, CT; format: cell-based; details: read-out: MIC CT
# [14] = system: Mycobacterium smegmatis CCM 4622 (ATCC 607); experiment: Antimycobacterial microdilution, M. smegmatis; format: cell-based; details: Mycolicibacterium smegmatis, read-out: M. smeg. ATCC 607 MIC
# [15] = system: Mycobacterium tuberculosis H37Rv CNCTC My 331/88 (ATCC 27294); experiment: Antimycobacterial microdilution MABA, M. tuberculosis; format: cell-based; details: for MIC: Mycobacterium tuberculosis, read-out: Mtb H37Rv ATCC 27294 MIC, Middlebrook 7H9 with OADC growth supplement, pH = 6.6, MABA
# [16] = system: Staphylococcus epidermidis H 6966/08; experiment: Antibacterial microdilution broth, SE; format: cell-based; details: Staphylococcus epidermidis, read-out: MIC SE
# [17] = system: Aspergillus fumigatus 231; experiment: Antifungal microdilution broth, AF; format: cell-based; details: read-out: MIC AF
# [18] = system: Trichophyton interdigitale 445; experiment: Antifungal microdilution broth, TI; format: cell-based; details: read-out: MIC TI
# [19] = CCM4516, 24 h, read-out: MIC SA, 24 h
# [20] = CCM4516, 48 h, read-out: MIC SA, 48 h
# [21] = Trichosporon asahii, 1188, 24 h
# [22] = Trichosporon asahii, 1188, 48 h
# [23] = Lichtheimia corymbifera, 272, 24 h
# [24] = Lichtheimia corymbifera, 272, 48 h
# [25] = Aspergillus fumigatus, 231, 24 h
# [26] = Aspergillus fumigatus, 231, 48 h
# [27] = Trichophyton interdigitale, 445, 72 h
# [28] = Trichophyton interdigitale, 445, 120 h
Structure (SMILES),"MIC [1, 19] [µM]","MIC [1, 20] [µM]","MIC [2, 21] [µM]","MIC [2, 22] [µM]",MIC [3] [µg/mL],"MIC ([4]; ATCC44859, 24 h) [µM]","MIC ([4]; ATCC44859, 48 h) [µM]","MIC ([5]; CCM4517, 24 h) [µM]","MIC ([5]; CCM4517, 48 h) [µM]","MIC ([6]; CCM1961, 72 h) [µM]","MIC ([6]; CCM1961, 120 h) [µM]","MIC [7, 23] [µM]","MIC [7, 24] [µM]",MIC [8] [µg/mL],melting point [°C],MIC ([9]; 24 h) [µM],MIC ([9]; 48 h) [µM],MIC ([10]; 24 h) [µM],MIC ([10]; 48 h) [µM],"MIC ([11]; SP.J14365/08, 24 h) [µM]",also measured
O=C(Nc1cnccn1)c1cccc(Cl)c1 [Compound 1k],> 125,> 125,> 125,> 125,50,> 125,> 125,> 125,> 125,> 125,> 125,> 125,> 125,> 100,147.2 to 149.4,> 125,> 125,> 125,> 125,> 125,"M. avium ATCC 15769 MIC [8]: >100 µg/mL; MIC ([11]; SP.J14365/08, 48 h): > 125 µM; MIC ([12]; E28, 24 h): > 125 µM; MIC ([12]; E28, 48 h): > 125 µM; MIC ([13]; Candida tropicalis, 156, 24 h): > 125 µM; MIC ([13]; Candida tropicalis, 156, 48 h): > 125 µM; MIC [14]: ≥ 500 µg/mL; MIC [15]: 50 µg/mL; MIC ([16]; H6966/08, 24 h): > 125 µM; MIC ([16]; H6966/08, 48 h): > 125 µM; MIC [17, 25]: > 125 µM; MIC [17, 26]: > 125 µM; MIC [18, 27]: > 125 µM; MIC [18, 28]: > 125 µM"
O=C(c1ccc(Cl)cc1)N(C(=O)c1ccc(Cl)cc1)c1cnccn1 [Compound 1l-SP],> 125,> 125,> 125,> 125,> 100,> 125,> 125,> 125,> 125,> 125,> 125,> 125,> 125,> 100,153.1 to 153.8,> 125,> 125,> 125,> 125,> 125,"M. kans. ATCC 12478 MIC ([3]; Middlebrook 7H9 with OADC, pH 6.6, MABA): >100 µg/mL; M. avium ATCC 15769 MIC [8]: >100 µg/mL; MIC ([11]; SP.J14365/08, 48 h): > 125 µM; MIC ([12]; E28, 24 h): > 125 µM; MIC ([12]; E28, 48 h): > 125 µM; MIC ([13]; Candida tropicalis, 156, 24 h): > 125 µM; MIC ([13]; Candida tropicalis, 156, 48 h): > 125 µM; MIC [14]: ≥ 500 µg/mL; MIC [15]: 50 µg/mL; MIC ([16]; H6966/08, 24 h): > 125 µM; MIC ([16]; H6966/08, 48 h): > 125 µM; MIC [17, 25]: > 125 µM; MIC [17, 26]: > 125 µM; MIC [18, 27]: > 125 µM; MIC [18, 28]: > 125 µM"
O=C(Nc1cnccn1)c1ccc(Cl)cc1 [Compound 1l],> 125,> 125,> 125,> 125,50,> 125,> 125,> 125,> 125,> 125,> 125,> 125,> 125,> 100,182.6 to 184.3,> 125,> 125,> 125,> 125,> 125,"M. avium ATCC 15769 MIC [8]: >100 µg/mL; MIC ([11]; SP.J14365/08, 48 h): > 125 µM; MIC ([12]; E28, 24 h): > 125 µM; MIC ([12]; E28, 48 h): > 125 µM; MIC ([13]; Candida tropicalis, 156, 24 h): > 125 µM; MIC ([13]; Candida tropicalis, 156, 48 h): > 125 µM; MIC [14]: ≥ 500 µg/mL; MIC [15]: 50 µg/mL; MIC ([16]; H6966/08, 24 h): > 125 µM; MIC ([16]; H6966/08, 48 h): > 125 µM; MIC [17, 25]: > 125 µM; MIC [17, 26]: > 125 µM; MIC [18, 27]: > 125 µM; MIC [18, 28]: > 125 µM"
O=C(Nc1cnc(Cl)cn1)c1ccccc1 [Compound 2a],250,250,> 500,> 500,> 100,> 500,> 500,> 500,> 500,> 500,> 500,> 500,> 500,> 100,162.5 to 163.5,> 500,> 500,250,250,> 500,"MIC ([11]; SP.J14365/08, 48 h): > 500 µM; MIC ([12]; E28, 24 h): > 500 µM; MIC ([12]; E28, 48 h): > 500 µM; MIC ([13]; Candida tropicalis, 156, 24 h): > 500 µM; MIC ([13]; Candida tropicalis, 156, 48 h): > 500 µM; MIC [14]: ≥ 500 µg/mL; Mtb H37Rv ATCC 27294 MIC ([15]; Middlebrook 7H9 with OADC growth supplement, pH = 6.6, MABA): >100 µg/mL; MIC [15]: > 100 µg/mL; MIC ([16]; H6966/08, 24 h): 500 µM; MIC ([16]; H6966/08, 48 h): 500 µM; MIC [17, 25]: > 500 µM; MIC [17, 26]: > 500 µM; MIC [18, 27]: > 500 µM; MIC [18, 28]: > 500 µM"

# From PMC6225228, “Design, Synthesis and Evaluation of N-pyrazinylbenzamides as Potential Antimycobacterial Agents” (Molecules : A Journal of Synthetic Chemistry and Natural …, 2018)
